Reference: ChEMBL document CHEMBL4184165, “Unique arginine array improves cytosolic localization of hydrocarbon-stapled peptides” (Bioorg Med Chem, 2018)
Where a SMILES comes first, the peptide text is derived from it. Bridges are numbered along the chain shown (N, C = ends). [ ]: non-standard residue; d: D form. The star is where a group is joined. X1 = CCN(CC)c1ccc2c(-c3ccc(S(=O)(=O)*)cc3S(=O)(=O)[O-])c3ccc(=[N+](CC)CC)cc-3oc2c1; R8 = C=CCCCCCC[C@@](C)(N)C(=O)O; S5 = C=CCCC[C@](C)(N)C(=O)O; βAla = NCCC(=O)O

Key:
[1] = Drug uptake in cytosol of human HeLa cells at 500 nM after 30 mins by FCS analysis relative to control; type: ADME, subcellular; conditions: 0.5 h, 0.5 µM
[2] = Drug uptake in cytosol of human HeLa cells at 500 nM after 30 mins by FCS analysis; type: ADME, subcellular; conditions: 0.5 h, 0.5 µM
SJSA-1 = assay: Cytotoxicity in human SJSA1 cells over expressing human DM2 after 24 hrs by CellTiter-Glo assay; type: functional, cell-based; conditions: SJSA-1, 24 h

Row | SMILES | Drug uptake [1] | Drug uptake [2] | EC50 (SJSA-1)
1 | CCN(CC)c1ccc2c(-c3ccc(S(=O)(=O)NCCC(=O)N[C@@H](CC(C)C)C(=O)N[C@@H](CO)C(=O)N[C@@H](CCC(N)=O)C(=O)N[C@@H](CCC(=O)O)C(=O)N[C@H](C(=O)N[C@@H](Cc4ccccc4)C(=O)N[C@]4(C)CCCCCC/C=C/CCC[C@@](C)(C(=O)N[C@@H](CCC(=O)O)C(=O)N[C@@H](CC(N)=O)C(N)=O)NC(=O)[C@H](CC(C)C)NC(=O)[C@H](CC(C)C)NC(=O)[C@H](CCCCN)NC(=O)[C@H](Cc5c[nH]c6ccccc56)NC(=O)[C@H](CC(C)C)NC(=O)[C@H](CC(=O)O)NC4=O)[C@@H](C)O)cc3S(=O)(=O)[O-])c3ccc(=[N+](CC)CC)cc-3oc2c1 | 12.4% | 62 nM | 
2 | CC(=O)N[C@@H](CC(C)C)C(=O)N[C@@H](CCCNC(=N)N)C(=O)N[C@@H](CCCNC(=N)N)C(=O)N[C@@H](CCC(=O)O)C(=O)N[C@H](C(=O)N[C@@H](Cc1ccccc1)C(=O)N[C@]1(C)CCCCCC/C=C/CCC[C@@](C)(C(=O)N[C@@H](CCCNC(=N)N)C(=O)N[C@@H](CCCNC(=N)N)C(N)=O)NC(=O)[C@H](CC(C)C)NC(=O)[C@H](CCCNC(=N)N)NC(=O)[C@H](CCCCN)NC(=O)[C@H](Cc2c[nH]c3ccccc23)NC(=O)[C@H](CC(C)C)NC(=O)[C@H](CC(=O)O)NC1=O)[C@@H](C)O (Ac-LRRETF[R8]DLWKRL[S5]RR-NH2; staple (E) 7-14) |  |  | 3.2 µM
3 | CC(=O)N[C@@H](CC(C)C)C(=O)N[C@@H](CCCNC(=N)N)C(=O)N[C@@H](CCCNC(=N)N)C(=O)N[C@@H](CCC(=O)O)C(=O)N[C@H](C(=O)N[C@@H](Cc1ccccc1)C(=O)N[C@]1(C)CCCCCC/C=C/CCC[C@@](C)(C(=O)N[C@@H](CCCNC(=N)N)C(=O)N[C@@H](CC(N)=O)C(N)=O)NC(=O)[C@H](CC(C)C)NC(=O)[C@H](CCCNC(=N)N)NC(=O)[C@H](CCCCN)NC(=O)[C@H](Cc2c[nH]c3ccccc23)NC(=O)[C@H](CCCNC(=N)N)NC(=O)[C@H](CC(=O)O)NC1=O)[C@@H](C)O (Ac-LRRETF[R8]DRWKRL[S5]RN-NH2; staple (E) 7-14) |  |  | 7.7 µM
4 | CC(=O)N[C@@H](CC(C)C)C(=O)N[C@@H](CO)C(=O)N[C@@H](CCC(N)=O)C(=O)N[C@@H](CCC(=O)O)C(=O)N[C@H](C(=O)N[C@@H](C)C(=O)N[C@]1(C)CCCCCC/C=C/CCC[C@@](C)(C(=O)N[C@@H](CCCNC(=N)N)C(=O)N[C@@H](CCCNC(=N)N)C(N)=O)NC(=O)[C@H](CC(C)C)NC(=O)[C@H](CCCNC(=N)N)NC(=O)[C@H](CCCNC(=N)N)NC(=O)[C@H](Cc2c[nH]c3ccccc23)NC(=O)[C@H](CC(C)C)NC(=O)[C@H](CCCNC(=N)N)NC1=O)[C@@H](C)O (Ac-LSQETA[R8]RLWRRL[S5]RR-NH2; staple (E) 7-14) |  |  | 4.8 µM
5 | CC(=O)N[C@@H](CC(C)C)C(=O)N[C@@H](CO)C(=O)N[C@@H](CCC(N)=O)C(=O)N[C@@H](CCC(=O)O)C(=O)N[C@H](C(=O)N[C@@H](Cc1ccccc1)C(=O)N[C@]1(C)CCCCCC/C=C/CCC[C@@](C)(C(=O)N[C@@H](CCCNC(=N)N)C(=O)N[C@@H](CCCNC(=N)N)C(N)=O)NC(=O)[C@H](CC(C)C)NC(=O)[C@H](CCCNC(=N)N)NC(=O)[C@H](CCCNC(=N)N)NC(=O)[C@H](Cc2c[nH]c3ccccc23)NC(=O)[C@H](CC(C)C)NC(=O)[C@H](CCCNC(=N)N)NC1=O)[C@@H](C)O (Ac-LSQETF[R8]RLWRRL[S5]RR-NH2; staple (E) 7-14) |  |  | 1.9 µM
6 | CC(=O)N[C@@H](CCC(N)=O)C(=O)N[C@@H](CO)C(=O)N[C@@H](CCC(N)=O)C(=O)N[C@@H](CCC(N)=O)C(=O)N[C@H](C(=O)N[C@@H](Cc1ccccc1)C(=O)N[C@]1(C)CCCCCC/C=C/CCC[C@@](C)(C(=O)N[C@@H](CCC(N)=O)C(=O)N[C@@H](CC(N)=O)C(N)=O)NC(=O)[C@H](CC(C)C)NC(=O)[C@H](CC(C)C)NC(=O)[C@H](CCCCN)NC(=O)[C@H](Cc2c[nH]c3ccccc23)NC(=O)[C@H](CC(C)C)NC(=O)[C@H](CC(N)=O)NC1=O)[C@@H](C)O (Ac-QSQQTF[R8]NLWKLL[S5]QN-NH2; staple (E) 7-14) |  |  | 10.2 µM
7 | CC(=O)N[C@@H](CCCNC(=N)N)C(=O)N[C@@H](CCCNC(=N)N)C(=O)N[C@@H](CCCNC(=N)N)C(=O)N[C@@H](CCCNC(=N)N)C(=O)N[C@@H](CCCNC(=N)N)C(=O)N[C@@H](Cc1ccccc1)C(=O)N[C@]1(C)CCCCCC/C=C/CCC[C@@](C)(C(=O)N[C@@H](CCC(=O)O)C(=O)N[C@@H](CC(N)=O)C(N)=O)NC(=O)[C@H](CC(C)C)NC(=O)[C@H](CC(C)C)NC(=O)[C@H](CCCCN)NC(=O)[C@H](Cc2c[nH]c3ccccc23)NC(=O)[C@H](CC(C)C)NC(=O)[C@H](CC(=O)O)NC1=O (Ac-RRRRRF[R8]DLWKLL[S5]EN-NH2; staple (E) 7-14) |  |  | 1.6 µM
8 | CC(=O)N[C@@H](CCCNC(=N)N)C(=O)N[C@@H](CO)C(=O)N[C@@H](CCC(N)=O)C(=O)N[C@@H](CCC(=O)O)C(=O)N[C@@H](CCCNC(=N)N)C(=O)N[C@@H](Cc1ccccc1)C(=O)N[C@]1(C)CCCCCC/C=C/CCC[C@@](C)(C(=O)N[C@@H](CCCNC(=N)N)C(=O)N[C@@H](CCCNC(=N)N)C(N)=O)NC(=O)[C@H](CC(C)C)NC(=O)[C@H](CCCNC(=N)N)NC(=O)[C@H](CCCCN)NC(=O)[C@H](Cc2c[nH]c3ccccc23)NC(=O)[C@H](CC(C)C)NC(=O)[C@H](CC(=O)O)NC1=O (Ac-RSQERF[R8]DLWKRL[S5]RR-NH2; staple (E) 7-14) |  |  | 7.7 µM
9 | CC(=O)N[C@@H](CCCNC(=N)N)C(=O)N[C@@H](CO)C(=O)N[C@@H](CCC(N)=O)C(=O)N[C@@H](CCC(=O)O)C(=O)N[C@@H](CCCNC(=N)N)C(=O)N[C@@H](Cc1ccccc1)C(=O)N[C@]1(C)CCCCCC/C=C/CCC[C@@](C)(C(=O)N[C@@H](CCC(=O)O)C(=O)N[C@@H](CC(N)=O)C(N)=O)NC(=O)[C@H](CC(C)C)NC(=O)[C@H](CCCNC(=N)N)NC(=O)[C@H](CCCNC(=N)N)NC(=O)[C@H](Cc2c[nH]c3ccccc23)NC(=O)[C@H](CC(C)C)NC(=O)[C@H](CCCNC(=N)N)NC1=O (Ac-RSQERF[R8]RLWRRL[S5]EN-NH2; staple (E) 7-14) |  |  | 7.2 µM
10 | CC(=O)N[C@@H](CCCNC(=N)N)C(=O)N[C@@H](CO)C(=O)N[C@@H](CCC(N)=O)C(=O)N[C@@H](CCCNC(=N)N)C(=O)N[C@@H](CCCNC(=N)N)C(=O)N[C@@H](Cc1ccccc1)C(=O)N[C@]1(C)CCCCCC/C=C/CCC[C@@](C)(C(=O)N[C@@H](CCC(=O)O)C(=O)N[C@@H](CC(N)=O)C(N)=O)NC(=O)[C@H](CC(C)C)NC(=O)[C@H](CC(C)C)NC(=O)[C@H](CCCNC(=N)N)NC(=O)[C@H](Cc2c[nH]c3ccccc23)NC(=O)[C@H](CC(=O)O)NC(=O)[C@H](CCCNC(=N)N)NC1=O (Ac-RSQRRF[R8]RDWRLL[S5]EN-NH2; staple (E) 7-14) |  |  | 1.9 µM
11 | CCN(CC)c1ccc2c(-c3ccc(S(=O)(=O)NCCC(=O)N[C@@H](CC(C)C)C(=O)N[C@@H](CO)C(=O)N[C@@H](CCC(N)=O)C(=O)N[C@@H](CCC(=O)O)C(=O)N[C@H](C(=O)N[C@@H](Cc4ccccc4)C(=O)N[C@]4(C)CCCCCC/C=C/CCC[C@@](C)(C(=O)N[C@@H](CCCNC(=N)N)C(=O)N[C@@H](CCCNC(=N)N)C(N)=O)NC(=O)[C@H](CC(C)C)NC(=O)[C@H](CCCNC(=N)N)NC(=O)[C@H](CCCNC(=N)N)NC(=O)[C@H](Cc5c[nH]c6ccccc56)NC(=O)[C@H](CC(C)C)NC(=O)[C@H](CCCNC(=N)N)NC4=O)[C@@H](C)O)cc3S(=O)(=O)[O-])c3ccc(=[N+](CC)CC)cc-3oc2c1 ({X1-βAla}-LSQETF[R8]RLWRRL[S5]RR-NH2; staple (E) 7-14) |  | 284 nM | 
12 | CCN(CC)c1ccc2c(-c3ccc(S(=O)(=O)NCCC(=O)N[C@@H](CCC(N)=O)C(=O)N[C@@H](CO)C(=O)N[C@@H](CCC(N)=O)C(=O)N[C@@H](CCC(N)=O)C(=O)N[C@H](C(=O)N[C@@H](Cc4ccccc4)C(=O)N[C@]4(C)CCCCCC/C=C/CCC[C@@](C)(C(=O)N[C@@H](CCC(N)=O)C(=O)N[C@@H](CC(N)=O)C(N)=O)NC(=O)[C@H](CC(C)C)NC(=O)[C@H](CC(C)C)NC(=O)[C@H](CCCCN)NC(=O)[C@H](Cc5c[nH]c6ccccc56)NC(=O)[C@H](CC(C)C)NC(=O)[C@H](CC(N)=O)NC4=O)[C@@H](C)O)cc3S(=O)(=O)[O-])c3ccc(=[N+](CC)CC)cc-3oc2c1 ({X1-βAla}-QSQQTF[R8]NLWKLL[S5]QN-NH2; staple (E) 7-14) | 51.9% | 256 to 260 nM | 
13 | CCN(CC)c1ccc2c(-c3ccc(S(=O)(=O)NCCC(=O)N[C@@H](CCCNC(=N)N)C(=O)N[C@@H](CO)C(=O)N[C@@H](CCC(N)=O)C(=O)N[C@@H](CCC(=O)O)C(=O)N[C@@H](CCCNC(=N)N)C(=O)N[C@@H](Cc4ccccc4)C(=O)N[C@]4(C)CCCCCC/C=C/CCC[C@@](C)(C(=O)N[C@@H](CCC(=O)O)C(=O)N[C@@H](CC(N)=O)C(N)=O)NC(=O)[C@H](CC(C)C)NC(=O)[C@H](CCCNC(=N)N)NC(=O)[C@H](CCCNC(=N)N)NC(=O)[C@H](Cc5c[nH]c6ccccc56)NC(=O)[C@H](CC(C)C)NC(=O)[C@H](CCCNC(=N)N)NC4=O)cc3S(=O)(=O)[O-])c3ccc(=[N+](CC)CC)cc-3oc2c1 ({X1-βAla}-RSQERF[R8]RLWRRL[S5]EN-NH2; staple (E) 7-14) | 13.8% | 69 nM | 
14 | COc1ccc(C2=N[C@@H](c3ccc(Cl)cc3)[C@@H](c3ccc(Cl)cc3)N2C(=O)N2CCNC(=O)C2)c(OC(C)C)c1 [NUTLIN-3] |  |  | 22.8 µM
